Results published in patent US7223781B2 (Beiersdorf AG, priority 2001, dated 2007).
Read-outs that look alike come from different tables or passages of the source.

Experiments:
COX-1 = biological target: T1, COX-1 (Sus scrofa, UniProt A0A287ANF9); assay: In-vitro test for COX-1 inhibition: fluorimetric quantification of malonaldehyde (MDA) in A23187-activated pig platelet suspension; assay type: cell-based; conditions: for inhibition of COX-1 (in words): comparison of both isoenzymes
T1 construct: A platelet suspension obtained from pig's blood is preincubated with the test substance; endogenous in cells; host or cells: platelets from pig's blood
Procedure: In-vitro Test Procedure for the Determination of COX-1 Inhibition
The inhibition of the cyclooxygenase pathway is carried out by fluorimetric quantification of malonaldehyde (MA). This condenses in the acidic medium with twice the molar amount of thiobarbituric acid to give a red pigment dye, which has a fluorescence at λExcitation: 533 nm, λEmission: 550 nm.
A platelet suspension obtained from pig's blood is preincubated with the test substance for 10 min at 37° C. The concentration of the suspension should be 8×10^8 cells/ml. The arachidonic acid cascade is then activated by addition of the antibiotic calcium ionophore A23187 ([…]). After a further 10 min at 37° C., the reaction is stopped using a trichloroacetic acid solution. The samples are centrifuged and the supernatant is incubated with thiobarbituric acid for 30 min at 70° C. After cooling (30 min at room temperature), the samples are measured fluorimetrically at 533/550 nm and the IC50 values of the test compounds are determined therefrom by means of a calibration curve.

COX-2 = biological target: T2, COX-2 (Homo sapiens, UniProt P35354); assay: In-vitro test for COX-2 inhibition: PGE2 ELISA in LPS-stimulated human monocytes; assay type: cell-based; conditions: for IC50: Table 18, LPS-stimulated human monocytes, PGE2; for inhibition of COX-2 (in words): comparison of both isoenzymes
T2 construct: endogenous in cells; host or cells: LPS-stimulated human monocytes (Ficoll extraction)
T2 sequence (P35354 18-604): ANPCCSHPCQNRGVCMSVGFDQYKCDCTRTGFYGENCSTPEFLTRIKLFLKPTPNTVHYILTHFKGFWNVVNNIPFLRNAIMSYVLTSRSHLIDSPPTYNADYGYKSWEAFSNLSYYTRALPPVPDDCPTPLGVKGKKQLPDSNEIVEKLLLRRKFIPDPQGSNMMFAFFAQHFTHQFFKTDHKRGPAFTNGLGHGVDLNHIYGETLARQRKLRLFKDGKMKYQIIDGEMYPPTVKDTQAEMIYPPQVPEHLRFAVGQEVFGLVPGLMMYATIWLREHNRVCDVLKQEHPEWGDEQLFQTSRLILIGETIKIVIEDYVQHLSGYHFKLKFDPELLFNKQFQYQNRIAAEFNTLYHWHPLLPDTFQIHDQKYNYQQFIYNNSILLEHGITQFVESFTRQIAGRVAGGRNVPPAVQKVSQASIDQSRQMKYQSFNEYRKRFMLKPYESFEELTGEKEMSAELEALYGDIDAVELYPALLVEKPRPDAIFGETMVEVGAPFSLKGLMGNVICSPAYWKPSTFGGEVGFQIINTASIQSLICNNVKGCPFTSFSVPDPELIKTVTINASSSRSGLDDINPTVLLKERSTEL
Procedure: In-vitro Test Procedure for the Determination of COX-2 Inhibition
The procedure is carried out on LPS-stimulated human monocytes which have been obtained by Ficoll extraction. The measurement variable used is the PGE2 formed, which is determined by means of ELISA.

[1] = Table 2, sulfanylacetamides, pig platelets, read-out: MDA pIC50 (converted)
[2] = read-out: COX-2 inhibition IC50
[3] = tables 1 to 17, read-out: IC50 values (inhibition of cyclooxygenase-1)
[4] = read-out: COX-2 inhibition pIC50 (converted)
[5] = Table 8, arylsulfonamides, pig platelets, read-out: MDA pIC50 (converted)
[6] = Table 9, alkylamides, pig platelets, read-out: MDA pIC50 (converted)
[7] = Table 7, arylamides, pig platelets, read-out: MDA pIC50 (converted)

T1 sequence (A0A287ANF9 25-600): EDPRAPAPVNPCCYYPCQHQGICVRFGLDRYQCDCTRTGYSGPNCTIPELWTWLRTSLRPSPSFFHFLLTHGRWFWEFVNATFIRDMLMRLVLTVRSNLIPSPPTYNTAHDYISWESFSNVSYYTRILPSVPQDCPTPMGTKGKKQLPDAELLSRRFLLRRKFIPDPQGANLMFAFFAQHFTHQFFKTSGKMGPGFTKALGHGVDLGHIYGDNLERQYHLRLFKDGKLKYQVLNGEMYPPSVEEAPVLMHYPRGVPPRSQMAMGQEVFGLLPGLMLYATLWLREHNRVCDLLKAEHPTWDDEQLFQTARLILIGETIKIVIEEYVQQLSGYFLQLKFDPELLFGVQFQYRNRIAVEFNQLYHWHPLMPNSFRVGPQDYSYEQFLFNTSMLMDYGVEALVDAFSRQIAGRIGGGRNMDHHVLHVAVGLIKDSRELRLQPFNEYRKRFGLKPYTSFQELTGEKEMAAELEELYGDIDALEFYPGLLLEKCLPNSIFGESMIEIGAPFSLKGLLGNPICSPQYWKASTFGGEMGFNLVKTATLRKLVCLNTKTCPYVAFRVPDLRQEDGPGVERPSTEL

COc1ccc(-c2nc(SC(C(C)=O)C(=O)N(C)C)[nH]c2-c2ccc(OC)cc2)cc1 (stereo not drawn) [Compound T7, N^1,N^1-Dimethyl-2-[4,5-bis(4-methoxyphenyl)-1H-imidazol-2-ylsufanyl]-3-oxobutanamide]
IC50 (COX-1; [1]): 33.1 nM | IC50 (COX-2; [2]): 500 nM

CCN(CC)C(=O)Sc1nc(-c2ccc(OC)cc2)c(-c2ccc(OC)cc2)[nH]1 [Compound T2, [4,5-Bis(4-methoxyphenyl)-1H-imidazol-2-yl]-N,N-diethylcarbamic acid thioester]
IC50 (COX-1; Table 1, carbamic acid thioesters, pig platelets, read-out: MDA IC50): 4.8 nM | IC50 (COX-1; [3]): ~1 nM | IC50 (COX-2; [4]): 2400 nM

COc1ccc(-c2nc(SCCNC(=O)N(C)C)[nH]c2-c2ccc(OC)cc2)cc1 [Compound T57, N^1-{2-[4,5-Bis(4-methoxyphenyl)-1H-imidazol-2-ylsulfanyl]ethyl}-N′,N′-dimethylurea]
IC50 (COX-1; Table 13, urea derivatives, pig platelets, read-out: MDA IC50): 78 nM | IC50 (COX-2; [4]): 209 nM

COc1ccc(-c2nc(SCC(=O)c3ccccc3)[nH]c2-c2ccc(OC)cc2)cc1 [Compound T11, 2-[4,5-Bis(4-methoxyphenyl)-1H-imidazol-2-ylsulfanyl]-1-phenylethan-1-one]
IC50 (COX-1; Table 4, aryl ketones, pig platelets, read-out: MDA IC50): 9.5 nM | IC50 (COX-1; [3]): ~1 nM | IC50 (COX-2; [4]): 257 nM

COc1ccc(-c2nc(SCCN(C)C(=O)c3ccccc3)[nH]c2-c2ccc(OC)cc2)cc1 [Compound T29, N^1-{2-[4,5-Bis(4-methoxyphenyl)-1H-imidazol-2ylsulfanyl]ethyl}-N^1-1-methylbenzamide]
IC50 (COX-1; Table 17, methyl derivatives, pig platelets, read-out: MDA pIC50 (converted)): 20.9 nM | inhibition of COX-1 (in words) (COX-1): approximately equally high potency | IC50 (COX-2; [4]): 10 nM | inhibition of COX-2 (in words) (COX-2): approximately equally high potency

COc1ccc(-c2nc(SCCNS(=O)(=O)c3cc(C(F)(F)F)cc(C(F)(F)F)c3)[nH]c2-c2ccc(OC)cc2)cc1 [Compound T22, N^1-{2-[4,5-Bis(4-methoxyphenyl)-1H-imidazol-2-ylsufanyl]ethyl}-3,5-bis-(trifluoromethyl)benzenesulfonamide]
IC50 (COX-1; [5]): 407 nM | IC50 (COX-2; [4]): 1510 nM

COc1ccc(-c2nc(SCCNC(C)=O)[nH]c2-c2ccc(OC)cc2)cc1 [Compound T49, N^1-{2-[4,5-Bis(4-methoxyphenyl)-1H-imidazol-2-ylsulfanyl]ethyl}acetamide]
IC50 (COX-1; [6]): 10 nM | IC50 (COX-2; [4]): 2690 nM

COc1ccc(-c2c(-c3ccc(Cl)cc3)nc(SCc3ccccn3)n2CC(=O)O)cc1 [Compound T109, 2-[4-(4-Chlorophenyl)-5-(4-methoxyphenyl)-2-(2-pyridylmethylsulfanyl) -1H-imidazol-1-yl]acetic acid]
IC50 (COX-1; Table 6, N1-acetic acid derivatives, pig platelets, read-out: MDA IC50): 490 nM | inhibition of COX-1 (in words) (COX-1): medium-strong inhibition | IC50 (COX-2; [4]): 1000 nM | inhibition of COX-2 (in words) (COX-2): medium-strong inhibition

COc1ccc(-c2nc(SCCN(C)C(=O)c3ccccc3)n(C)c2-c2ccc(OC)cc2)cc1 [Compound T31]
IC50 (COX-1; Table 16, dimethyl compounds, pig platelets, read-out: MDA pIC50 (converted)): 83.2 nM | IC50 (COX-2; [2]): 910 nM

COc1ccc(-c2nc(SCc3ccccn3)[nH]c2-c2ccc(OC)cc2)cc1 [Compound T69, 2-[4,5-Bis(4-methoxyphenyl)-1H-imidazol-2-ylsulfanylmethyl]pyridine]
IC50 (COX-1; Table 5, heteroarylmethyl sulfides, pig platelets, read-out: MDA pIC50 (converted)): 100 nM | IC50 (COX-1; Table 14, sulfones and their sulfide analogs, pig platelets, read-out: MDA pIC50 (converted)): 100 nM | IC50 (COX-2; [4]): 240 nM

COc1ccc(-c2nc(SCC(=O)N(C)C)[nH]c2-c2ccc(OC)cc2)cc1 [Compound T6, N^1N^1-Dimethyl-2-[4,5-bis(4-methoxyphenyl)-1H-imidazol-2-ylsulfanyl]-acetamide]
IC50 (COX-1; [1]): 10 nM | IC50 (COX-1; Table 15, N,N-acetamides, pig platelets, read-out: MDA pIC50 (converted)): 10 nM | IC50 (COX-2; [4]): 2290 nM

COc1ccc(-c2nc(SCCNS(=O)(=O)c3ccc(NC(C)=O)cc3)[nH]c2-c2ccc(OC)cc2)cc1 [Compound T27, N^1-(4-{2-[4,5-Bis(4-methoxyphenyl)-1H-imidazol-2-ylsufanyl]ethyl-sulfamoyl}phenyl)acetamide]
IC50 (COX-1; [5]): 18.2 nM | IC50 (COX-2; [4]): 1200 nM

CC(=O)NCCSc1nc(-c2ccc(Cl)cc2)c(-c2ccc(Cl)cc2)[nH]1 [Compound T84, N^1-{2-[4,5-Bis(4-chlorophenyl)-1H-imidazol-2-ylsufanyl]ethyl}acetamide]
IC50 (COX-1; [6]): 1100 nM | IC50 (COX-2; [4]): 2690 nM

COc1ccc(-c2[nH]c(SCCNS(=O)(=O)c3ccc(Cl)cc3)nc2-c2ccc(Cl)cc2)cc1 [Compound T111, N^1-{2-[4-(4-Chlorophenyl)-5-(4-methoxyphenv)-1H-imidazol-2-yl-sufanyl]ethyl}-4-chlorobenzenesulfonamide]
IC50 (COX-1; [5]): 129 nM | IC50 (COX-2; [2]): 800 nM

CCN(CC)C(=O)Sc1nc(-c2ccc(Cl)cc2)c(-c2ccc(OC)cc2)[nH]1 [Compound T108, [4-(4-Chlorophenyl)-5-(4-methoxyphenyl)-1H-imidazol-2-yl]-N N-diethyl-carbamic acid thioester]
IC50 (COX-1; Table 1, carbamic acid thioesters, pig platelets, read-out: MDA pIC50 (converted)): 158 nM | IC50 (COX-2; [4]): 1000 nM

COc1ccc(-c2nc(SCCNS(=O)(=O)c3cccc4ccccc34)[nH]c2-c2ccc(OC)cc2)cc1 [Compound T67, N^1-{2-[4,5-Bis(4-methoxyphenyl)-1H-imidazol-2-ylsulfanyl]ethyl}-naphthalene-1-sulfonamide]
IC50 (COX-1; Table 12, naphthylsulfonamides, pig platelets, read-out: MDA pIC50 (converted)): 380 nM

COc1ccc(-c2nc(SCCNS(=O)(=O)c3ccc(Cl)cc3)[nH]c2-c2ccc(OC)cc2)cc1 [Compound T18, N-hu 1-{2-[4,5-Bis(4-methoxyphenyl)-1H-imidazol-2-ylsufanyl]ethyl}-4-chlorobenzenesulfonamide]
IC50 (COX-1; [5]): 282 nM | IC50 (COX-2; [4]): 3020 nM

COc1ccc(-c2nc(SCCNC(=O)c3cccc(C(F)(F)F)c3)[nH]c2-c2ccc(OC)cc2)cc1 [Compound T43, N^1-{2-[4,5-Bis(4-methoxyphenyl)-1H-imidazol-2-ylsufanyl]ethyl}-3-(tri-fluoromethyl)benzamide]
IC50 (COX-1; [7]): 100 nM

COc1ccc(-c2nc(SCC(=O)Nc3ccccc3)[nH]c2-c2ccc(OC)cc2)cc1 [Compound T9, N^1-Phenyl-2-[4,5-bis(4-methoxyphenyl)-1H-imidazol-2-ylsufanyl]acetamide]
IC50 (COX-1; [1]): 34.7 nM

COc1ccc(-c2nc(SCCNS(=O)(=O)c3ccc([N+](=O)[O-])cc3)[nH]c2-c2ccc(OC)cc2)cc1 [Compound T21, N^1-{2-[4,5-Bis(4-methoxyphenyl)-1H-imidazol-2-ylsufanyl]ethyl}-4-nitro-benzenesulfonamide]
MDA pIC50 (COX-1; Table 8, arylsulfonamides, pig platelets): 6.96 M | IC50 (COX-1; Table 8, arylsulfonamides, pig platelets, read-out: MDA IC50): 110 nM

COc1ccc(-c2nc(SCCNC(=O)c3cccc4ccccc34)[nH]c2-c2ccc(OC)cc2)cc1 [Compound T55, N^1-{2-[4,5-Bis(4-methoxyphenyl)-1H-imidazol-2-ylsulfanyl]ethyl}-1-naphthamide]
IC50 (COX-1; Table 11, heteroaryl- and naphthylamides, pig platelets, read-out: MDA IC50): 560 nM

COc1ccc(C(=O)NCCSc2nc(-c3ccc(OC)cc3)c(-c3ccc(OC)cc3)[nH]2)cc1 [Compound T45, N^1-{2-[4,5-Bis(4-methoxyphenyl)-1H-imidazol-2-ylsufanyl]ethyl}-4-methoxybenzamide]
IC50 (COX-1; [7]): 1000 nM

O=C(NCCSc1nc(-c2ccc(F)cc2)c(-c2ccc(F)cc2)[nH]1)c1ccccc1 [Compound T98, N^1-{2-[4,5-Bis(4-fluorophenyl)-1H-imidazol-2-ylsufanyl]ethyl}benzamide]
IC50 (COX-1; [7]): 1000 nM
